This passage reports ED50 results from ChEMBL document CHEMBL5649169 (ChemMedChem, 2018).

Assay [1] addresses 14-3-3 protein beta/alpha (Homo sapiens) (UniProt P31946).
For assay [2], the target named is Hypoxia up-regulated protein 1 (Homo sapiens) (UniProt Q9Y4L1).
For assay [3], the target named is Very long-chain specific acyl-CoA dehydrogenase, mitochondrial (Homo sapiens) (UniProt P49748).
Assay [4] addresses Sorting nexin-9 (Homo sapiens) (UniProt Q9Y5X1).
The target of assay [5] is Centrosome and spindle pole-associated protein 1 (Homo sapiens) (UniProt Q1MSJ5).
Assay [6] has as its target Cullin-5 (Homo sapiens) (UniProt Q93034).
Assay [7] concerns the target Protein kinase C and casein kinase substrate in neurons protein 2 (Homo sapiens) (UniProt Q9UNF0).
Assay [8] deals with Oxysterol-binding protein-related protein 3 (Homo sapiens) (UniProt Q9H4L5).
For assay [9], the species on record is Homo sapiens.
Assay [10] has as its target WASH complex subunit 4 (Homo sapiens) (UniProt Q2M389).
The target in assay [11] is Programmed cell death protein 2-like (Homo sapiens) (UniProt Q9BRP1).
Sequence of Programmed cell death protein 2-like (Homo sapiens) (Q9BRP1 whole entry): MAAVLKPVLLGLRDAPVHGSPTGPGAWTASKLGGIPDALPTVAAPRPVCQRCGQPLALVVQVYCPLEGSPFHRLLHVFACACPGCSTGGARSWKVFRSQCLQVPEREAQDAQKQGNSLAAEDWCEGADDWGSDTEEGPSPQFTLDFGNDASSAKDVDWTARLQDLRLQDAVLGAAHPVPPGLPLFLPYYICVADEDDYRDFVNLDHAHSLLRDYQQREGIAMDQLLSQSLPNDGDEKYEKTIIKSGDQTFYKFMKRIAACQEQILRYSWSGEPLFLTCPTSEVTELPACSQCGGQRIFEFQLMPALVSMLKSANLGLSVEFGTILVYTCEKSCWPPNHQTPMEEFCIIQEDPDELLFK
In assay [12] the target is Cullin-4B (Homo sapiens) (UniProt Q13620).
Sequence of Cullin-4B (Homo sapiens) (Q13620 whole entry): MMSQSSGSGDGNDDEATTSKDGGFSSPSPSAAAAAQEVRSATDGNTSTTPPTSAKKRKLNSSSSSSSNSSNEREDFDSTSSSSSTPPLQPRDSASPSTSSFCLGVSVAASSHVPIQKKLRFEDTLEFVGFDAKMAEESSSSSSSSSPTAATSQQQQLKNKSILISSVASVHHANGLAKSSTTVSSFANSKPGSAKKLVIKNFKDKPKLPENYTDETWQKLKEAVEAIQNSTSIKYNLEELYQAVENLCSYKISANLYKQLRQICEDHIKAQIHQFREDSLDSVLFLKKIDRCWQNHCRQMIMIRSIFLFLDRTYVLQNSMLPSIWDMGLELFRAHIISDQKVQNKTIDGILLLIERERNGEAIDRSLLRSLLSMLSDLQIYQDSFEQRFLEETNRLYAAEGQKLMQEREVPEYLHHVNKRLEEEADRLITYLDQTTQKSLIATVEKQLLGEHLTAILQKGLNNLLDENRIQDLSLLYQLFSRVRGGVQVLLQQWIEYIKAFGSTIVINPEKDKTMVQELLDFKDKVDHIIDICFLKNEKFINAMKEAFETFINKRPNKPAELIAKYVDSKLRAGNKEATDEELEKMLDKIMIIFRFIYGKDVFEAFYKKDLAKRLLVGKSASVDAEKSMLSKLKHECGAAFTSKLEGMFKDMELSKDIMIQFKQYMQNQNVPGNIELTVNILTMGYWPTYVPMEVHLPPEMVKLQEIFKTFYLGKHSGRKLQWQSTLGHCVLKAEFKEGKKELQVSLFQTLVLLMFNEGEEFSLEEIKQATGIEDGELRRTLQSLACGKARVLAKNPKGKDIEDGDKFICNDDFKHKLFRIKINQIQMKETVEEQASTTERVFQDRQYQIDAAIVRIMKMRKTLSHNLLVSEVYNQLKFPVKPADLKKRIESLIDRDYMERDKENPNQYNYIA
In assay [13] the target is Large ribosomal subunit protein eL19 (Homo sapiens) (UniProt P84098).
Also: assay method not described here.

Sequence of Protein kinase C and casein kinase substrate in neurons protein 2 (Homo sapiens) (Q9UNF0 whole entry): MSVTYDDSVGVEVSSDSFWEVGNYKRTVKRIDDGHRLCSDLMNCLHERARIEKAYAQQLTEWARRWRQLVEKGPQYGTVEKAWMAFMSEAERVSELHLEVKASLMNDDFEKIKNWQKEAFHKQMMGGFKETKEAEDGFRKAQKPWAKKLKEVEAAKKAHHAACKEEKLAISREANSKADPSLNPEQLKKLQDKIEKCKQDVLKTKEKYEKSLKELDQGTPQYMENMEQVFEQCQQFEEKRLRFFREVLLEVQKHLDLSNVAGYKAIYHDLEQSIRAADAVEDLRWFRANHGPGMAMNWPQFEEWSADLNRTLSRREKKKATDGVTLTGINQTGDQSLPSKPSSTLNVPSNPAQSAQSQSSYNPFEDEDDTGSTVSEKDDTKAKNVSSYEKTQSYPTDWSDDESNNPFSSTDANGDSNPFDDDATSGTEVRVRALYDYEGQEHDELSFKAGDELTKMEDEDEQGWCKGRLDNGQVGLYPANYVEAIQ
Sequence of Sorting nexin-9 (Homo sapiens) (Q9Y5X1 whole entry): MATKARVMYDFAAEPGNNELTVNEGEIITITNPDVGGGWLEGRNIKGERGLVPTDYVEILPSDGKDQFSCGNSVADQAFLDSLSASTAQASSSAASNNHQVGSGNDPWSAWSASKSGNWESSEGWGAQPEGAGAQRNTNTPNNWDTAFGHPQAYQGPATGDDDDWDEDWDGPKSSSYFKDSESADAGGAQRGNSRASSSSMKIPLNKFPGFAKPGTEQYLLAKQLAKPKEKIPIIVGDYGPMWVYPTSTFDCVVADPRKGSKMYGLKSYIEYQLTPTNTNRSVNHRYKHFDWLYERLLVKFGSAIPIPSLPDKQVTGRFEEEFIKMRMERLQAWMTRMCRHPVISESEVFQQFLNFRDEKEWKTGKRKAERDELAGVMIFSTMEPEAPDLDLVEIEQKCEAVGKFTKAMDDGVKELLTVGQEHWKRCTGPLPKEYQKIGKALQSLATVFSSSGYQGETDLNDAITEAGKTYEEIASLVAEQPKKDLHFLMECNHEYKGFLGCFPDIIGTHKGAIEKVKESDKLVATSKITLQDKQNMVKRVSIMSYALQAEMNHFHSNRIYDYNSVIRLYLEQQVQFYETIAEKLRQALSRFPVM
Sequence of 14-3-3 protein beta/alpha (Homo sapiens) (P31946 whole entry): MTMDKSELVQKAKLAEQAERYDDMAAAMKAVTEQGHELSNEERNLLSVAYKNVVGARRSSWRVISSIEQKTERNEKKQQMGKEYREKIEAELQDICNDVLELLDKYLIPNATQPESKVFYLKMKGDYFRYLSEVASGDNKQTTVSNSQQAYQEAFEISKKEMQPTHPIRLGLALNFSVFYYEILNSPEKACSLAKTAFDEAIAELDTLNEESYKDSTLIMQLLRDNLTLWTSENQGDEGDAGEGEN
Sequence of Cullin-5 (Homo sapiens) (Q93034 whole entry): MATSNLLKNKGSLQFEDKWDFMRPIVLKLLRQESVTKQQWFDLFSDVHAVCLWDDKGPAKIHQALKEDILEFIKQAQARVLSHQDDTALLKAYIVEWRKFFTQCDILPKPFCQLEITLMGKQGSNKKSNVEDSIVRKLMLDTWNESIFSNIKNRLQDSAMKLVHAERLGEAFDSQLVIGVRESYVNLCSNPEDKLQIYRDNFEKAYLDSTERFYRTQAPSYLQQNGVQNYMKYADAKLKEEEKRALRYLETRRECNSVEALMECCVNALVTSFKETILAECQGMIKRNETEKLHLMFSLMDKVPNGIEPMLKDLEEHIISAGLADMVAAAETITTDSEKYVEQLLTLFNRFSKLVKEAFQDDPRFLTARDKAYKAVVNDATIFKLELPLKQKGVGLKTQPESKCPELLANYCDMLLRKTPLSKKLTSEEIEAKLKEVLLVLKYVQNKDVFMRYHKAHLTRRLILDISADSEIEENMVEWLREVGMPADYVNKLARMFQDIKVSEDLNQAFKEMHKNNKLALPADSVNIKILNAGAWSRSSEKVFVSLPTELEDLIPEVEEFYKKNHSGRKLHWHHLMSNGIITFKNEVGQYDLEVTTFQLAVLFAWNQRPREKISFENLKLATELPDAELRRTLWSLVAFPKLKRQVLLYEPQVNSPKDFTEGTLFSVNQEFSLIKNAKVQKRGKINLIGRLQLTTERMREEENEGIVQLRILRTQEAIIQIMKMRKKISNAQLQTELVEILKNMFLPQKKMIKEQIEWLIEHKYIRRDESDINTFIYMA
Sequence of Very long-chain specific acyl-CoA dehydrogenase, mitochondrial (Homo sapiens) (P49748 whole entry): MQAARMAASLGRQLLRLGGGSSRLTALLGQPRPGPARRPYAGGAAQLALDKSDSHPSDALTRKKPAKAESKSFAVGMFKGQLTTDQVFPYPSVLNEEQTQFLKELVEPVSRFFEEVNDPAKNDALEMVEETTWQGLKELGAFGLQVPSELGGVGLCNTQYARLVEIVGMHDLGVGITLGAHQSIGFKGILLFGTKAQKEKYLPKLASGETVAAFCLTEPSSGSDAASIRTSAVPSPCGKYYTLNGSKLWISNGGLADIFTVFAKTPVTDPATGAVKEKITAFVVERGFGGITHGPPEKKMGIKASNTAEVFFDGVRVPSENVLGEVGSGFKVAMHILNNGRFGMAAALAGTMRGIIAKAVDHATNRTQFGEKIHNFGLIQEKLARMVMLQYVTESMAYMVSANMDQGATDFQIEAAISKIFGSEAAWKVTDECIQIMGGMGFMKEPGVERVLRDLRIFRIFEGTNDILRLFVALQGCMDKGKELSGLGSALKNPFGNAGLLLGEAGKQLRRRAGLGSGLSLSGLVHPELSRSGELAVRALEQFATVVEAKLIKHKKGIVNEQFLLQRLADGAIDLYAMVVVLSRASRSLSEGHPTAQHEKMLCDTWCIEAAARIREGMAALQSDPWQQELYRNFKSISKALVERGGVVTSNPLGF
Sequence of Hypoxia up-regulated protein 1 (Homo sapiens) (Q9Y4L1 whole entry): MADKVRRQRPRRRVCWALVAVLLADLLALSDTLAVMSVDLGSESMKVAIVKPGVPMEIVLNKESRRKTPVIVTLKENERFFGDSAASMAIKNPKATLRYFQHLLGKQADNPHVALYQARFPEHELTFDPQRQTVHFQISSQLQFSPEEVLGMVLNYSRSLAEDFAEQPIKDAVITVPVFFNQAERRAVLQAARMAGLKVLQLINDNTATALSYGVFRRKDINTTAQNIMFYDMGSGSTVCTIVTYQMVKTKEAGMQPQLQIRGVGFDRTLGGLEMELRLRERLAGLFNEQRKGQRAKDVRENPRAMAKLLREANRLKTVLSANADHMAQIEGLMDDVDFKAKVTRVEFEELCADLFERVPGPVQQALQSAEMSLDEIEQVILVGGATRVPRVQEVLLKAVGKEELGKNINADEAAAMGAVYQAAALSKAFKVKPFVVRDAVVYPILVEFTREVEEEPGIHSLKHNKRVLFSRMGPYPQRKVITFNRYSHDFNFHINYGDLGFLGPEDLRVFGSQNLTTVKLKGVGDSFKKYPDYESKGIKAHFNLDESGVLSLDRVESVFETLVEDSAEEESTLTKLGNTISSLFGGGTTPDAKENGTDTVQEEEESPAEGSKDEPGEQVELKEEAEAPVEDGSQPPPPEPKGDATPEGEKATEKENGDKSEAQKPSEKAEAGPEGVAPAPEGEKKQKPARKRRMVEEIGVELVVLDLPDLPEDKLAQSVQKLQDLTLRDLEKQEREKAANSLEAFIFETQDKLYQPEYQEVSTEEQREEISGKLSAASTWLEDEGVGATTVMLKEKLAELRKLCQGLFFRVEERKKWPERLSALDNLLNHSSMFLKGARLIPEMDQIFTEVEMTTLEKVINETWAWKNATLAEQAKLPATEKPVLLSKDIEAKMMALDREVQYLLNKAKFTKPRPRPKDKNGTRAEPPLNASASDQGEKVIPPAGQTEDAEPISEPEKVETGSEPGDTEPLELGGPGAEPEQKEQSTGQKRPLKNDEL

Take `Cc1ccc(C(=O)Nc2cccc(C(F)(F)F)c2)cc1Nc1nc(-c2cccnc2)nc2nn(C)cc12`: the ED50 in [1] turned out to be 0.0807 µM; in [2], 0.0524 µM; in assay [3], 0.051 µM.
Turning to `Cc1ccc(C(=O)Nc2cccc(C(F)(F)F)c2)cc1Nc1nc(-c2cccnc2)nc2c1cnn2C`, the ED50 stood at 0.494 µM in assay [4]; 1.41 µM in [5]; 0.676 µM in [6]; 0.579 µM in assay [7]; 0.946 µM in assay [8]; 4.42 µM in [9]. Also, the ED50 in assay [10] was determined as 0.0229 µM; in [11] it was 4.49 µM; in assay [12], 1.76 µM; in assay [13], 2.93 µM.
